Source: ChEMBL document CHEMBL3885881, “DrugMatrix”

Species: Rattus norvegicus
Assay: DrugMatrix - Regimen: Daily Repeat
Format: toxicity, organism-based, Sprague-Dawley
Parameters: regimen Daily Repeat, gender Male, age 6-8 weeks
Conditions: in vivo, sc, route subcutaneous, […]; for ABSOLUTE BASOPHIL / BASOPHIL / ABSOLUTE EOSINOPHIL / ABSOLUTE LYMPHOCYTE / ABSOLUTE MONOCYTE / ABSOLUTE SEGMENTED NEUTROPHIL / EOSINOPHIL / ERYTHROCYTE COUNT / HEMATOCRIT / HEMOGLOBIN / LEUKOCYTE COUNT / LYMPHOCYTE / MEAN CORPUSCULAR HEMOGLOBIN / MEAN CORPUSCULAR HEMOGLOBIN CONCENTRATION / MEAN CORPUSCULAR VOLUME / MONOCYTE / NEUTROPHIL / NUCLEATED RED BLOOD CELLS / PLATELET COUNT: tissue Blood; for CREATININE / ALANINE AMINOTRANSFERASE / ALBUMIN / ALKALINE PHOSPHATASE / ASPARTATE AMINOTRANSFERASE / BLOOD UREA NITROGEN / CARBON DIOXIDE / CHLORIDE / CHOLESTEROL / CREATINE PHOSPHOKINASE / GLUCOSE / LACTATE DEHYDROGENASE / LIPASE / PHOSPHORUS / POTASSIUM / SODIUM / TOTAL BILIRUBIN / TOTAL PROTEIN / URIC ACID: tissue Plasma
[1] = 0 mg/kg, 72 h, dose level Control, time 3 day
[2] = 0 mg/kg, 120 h, dose level Control, time 5 day
[3] = 0.1 mg/kg, 72 h, dose level Low, time 3 day
[4] = 0.1 mg/kg, 120 h, dose level Low, time 5 day
[5] = 2 mg/kg, 72 h, dose level M2, time 3 day
[6] = 2 mg/kg, 120 h, dose level M2, time 5 day

Structure (SMILES): C[C@]12CC[C@@H]3c4ccc(OC(=O)c5ccccc5)cc4CC[C@H]3[C@@H]1CC[C@@H]2O [ESTRADIOL BENZOATE]
- ABSOLUTE BASOPHIL [1]: 0 CELLS/uL
- BASOPHIL [1]: 0%
- ABSOLUTE BASOPHIL [2]: 0 CELLS/uL
- BASOPHIL [2]: 0%
- CREATININE [2]: 0.17 mg/dL
- ABSOLUTE BASOPHIL [3]: 0 CELLS/uL
- ABSOLUTE EOSINOPHIL [3]: 27.33 CELLS/uL
- ABSOLUTE LYMPHOCYTE [3]: 9086.67 CELLS/uL
- ABSOLUTE MONOCYTE [3]: 78.67 CELLS/uL
- ABSOLUTE SEGMENTED NEUTROPHIL [3]: 1407.33 CELLS/uL
- BASOPHIL [3]: 0%
- EOSINOPHIL [3]: 0.33%
- ERYTHROCYTE COUNT [3]: 6.05 x10E6/uL
- HEMATOCRIT [3]: 38.9%
- HEMOGLOBIN [3]: 13.37 G/DL
- LEUKOCYTE COUNT [3]: 10.6 x10E3/uL
- LYMPHOCYTE [3]: 85.67%
- MEAN CORPUSCULAR HEMOGLOBIN [3]: 22.27 pg
- MEAN CORPUSCULAR HEMOGLOBIN CONCENTRATION [3]: 34.73 G/DL
- MEAN CORPUSCULAR VOLUME [3]: 64.23 fL
- MONOCYTE [3]: 0.67%
- NEUTROPHIL [3]: 13.33%
- NUCLEATED RED BLOOD CELLS [3]: 0 /100WBC
- PLATELET COUNT [3]: 1490.33 x10E3/uL
- ALANINE AMINOTRANSFERASE [3]: 35.67 u/L
- ALBUMIN [3]: 4.43 G/DL
- ALKALINE PHOSPHATASE [3]: 250.67 u/L
- ASPARTATE AMINOTRANSFERASE [3]: 76 u/L
- BLOOD UREA NITROGEN [3]: 10 mg/dL
- CARBON DIOXIDE [3]: 23.67 mmol/L
- CHLORIDE [3]: 100.33 MEQ/L
- CHOLESTEROL [3]: 76.67 mg/dL
- CREATINE PHOSPHOKINASE [3]: 460 u/L
- CREATININE [3]: 0.17 mg/dL
- GLUCOSE [3]: 191.67 mg/dL
- LACTATE DEHYDROGENASE [3]: 269.67 u/L
- LIPASE [3]: 9 u/L
- PHOSPHORUS [3]: 12.77 mg/dL
- POTASSIUM [3]: 6.18 MEQ/L
- SODIUM [3]: 140.73 MEQ/L
- TOTAL BILIRUBIN [3]: 0.1 mg/dL
- TOTAL PROTEIN [3]: 5.77 G/DL
- URIC ACID [3]: 3.8 mg/dL
- ABSOLUTE BASOPHIL [4]: 0 CELLS/uL
- ABSOLUTE EOSINOPHIL [4]: 79 CELLS/uL
- ABSOLUTE LYMPHOCYTE [4]: 6274.33 CELLS/uL
- ABSOLUTE MONOCYTE [4]: 295 CELLS/uL
- ABSOLUTE SEGMENTED NEUTROPHIL [4]: 551.67 CELLS/uL
- BASOPHIL [4]: 0%
- EOSINOPHIL [4]: 1%
- ERYTHROCYTE COUNT [4]: 5.91 x10E6/uL
- HEMATOCRIT [4]: 35.77%
- HEMOGLOBIN [4]: 13.47 G/DL
- LEUKOCYTE COUNT [4]: 7.2 x10E3/uL
- LYMPHOCYTE [4]: 86.67%
- MEAN CORPUSCULAR HEMOGLOBIN [4]: 22.8 pg
- MEAN CORPUSCULAR HEMOGLOBIN CONCENTRATION [4]: 37.67 G/DL
- MEAN CORPUSCULAR VOLUME [4]: 60.53 fL
- MONOCYTE [4]: 4%
- NEUTROPHIL [4]: 8.33%
- NUCLEATED RED BLOOD CELLS [4]: 0 /100WBC
- PLATELET COUNT [4]: 1231.67 x10E3/uL
- ALANINE AMINOTRANSFERASE [4]: 39.67 u/L
- ALBUMIN [4]: 5.37 G/DL
- ALKALINE PHOSPHATASE [4]: 187.33 u/L
- ASPARTATE AMINOTRANSFERASE [4]: 63 u/L
- BLOOD UREA NITROGEN [4]: 13.67 mg/dL
- CARBON DIOXIDE [4]: 29 mmol/L
- CHLORIDE [4]: 98.33 MEQ/L
- CHOLESTEROL [4]: 96.33 mg/dL
- CREATINE PHOSPHOKINASE [4]: 578 u/L
- CREATININE [4]: 0.18 mg/dL
- GLUCOSE [4]: 128.33 mg/dL
- LACTATE DEHYDROGENASE [4]: 137 u/L
- LIPASE [4]: 10.67 u/L
- PHOSPHORUS [4]: 11.5 mg/dL
- POTASSIUM [4]: 6.15 MEQ/L
- SODIUM [4]: 142.73 MEQ/L
- TOTAL BILIRUBIN [4]: 0.1 mg/dL
- TOTAL PROTEIN [4]: 7.67 G/DL
- URIC ACID [4]: 2.73 mg/dL
- ABSOLUTE BASOPHIL [5]: 0 CELLS/uL
- ABSOLUTE EOSINOPHIL [5]: 32 CELLS/uL
- ABSOLUTE LYMPHOCYTE [5]: 8090.33 CELLS/uL
- ABSOLUTE MONOCYTE [5]: 25.67 CELLS/uL
- ABSOLUTE SEGMENTED NEUTROPHIL [5]: 718.67 CELLS/uL
- BASOPHIL [5]: 0%
- EOSINOPHIL [5]: 0.33%
- ERYTHROCYTE COUNT [5]: 5.61 x10E6/uL
- HEMATOCRIT [5]: 37.6%
- HEMOGLOBIN [5]: 14.37 G/DL
- LEUKOCYTE COUNT [5]: 8.87 x10E3/uL
- LYMPHOCYTE [5]: 91.33%
- MEAN CORPUSCULAR HEMOGLOBIN [5]: 25.63 pg
- MEAN CORPUSCULAR HEMOGLOBIN CONCENTRATION [5]: 38.23 G/DL
- MEAN CORPUSCULAR VOLUME [5]: 67.03 fL
- MONOCYTE [5]: 0.33%
- NEUTROPHIL [5]: 8%
- NUCLEATED RED BLOOD CELLS [5]: 0.33 /100WBC
- PLATELET COUNT [5]: 1211.67 x10E3/uL
- ALANINE AMINOTRANSFERASE [5]: 46.67 u/L
- ALBUMIN [5]: 3.97 G/DL
- ALKALINE PHOSPHATASE [5]: 647.67 u/L
- ASPARTATE AMINOTRANSFERASE [5]: 67.67 u/L
- BLOOD UREA NITROGEN [5]: 9.67 mg/dL
- CARBON DIOXIDE [5]: 23.33 mmol/L
- CHLORIDE [5]: 96.33 MEQ/L
- CHOLESTEROL [5]: 36.33 mg/dL
- CREATINE PHOSPHOKINASE [5]: 231.67 u/L
- CREATININE [5]: 0.28 mg/dL
- GLUCOSE [5]: 138.67 mg/dL
- LACTATE DEHYDROGENASE [5]: 103 u/L
- LIPASE [5]: 9.33 u/L
- PHOSPHORUS [5]: 10.07 mg/dL
- POTASSIUM [5]: 5.43 MEQ/L
- SODIUM [5]: 138.43 MEQ/L
- TOTAL BILIRUBIN [5]: 0.1 mg/dL
- TOTAL PROTEIN [5]: 5.77 G/DL
- URIC ACID [5]: 0.63 mg/dL
- ABSOLUTE BASOPHIL [6]: 0 CELLS/uL
- ABSOLUTE EOSINOPHIL [6]: 34.67 CELLS/uL
- ABSOLUTE LYMPHOCYTE [6]: 10740.67 CELLS/uL
- ABSOLUTE MONOCYTE [6]: 0 CELLS/uL
- ABSOLUTE SEGMENTED NEUTROPHIL [6]: 658 CELLS/uL
- BASOPHIL [6]: 0%
- EOSINOPHIL [6]: 0.33%
- ERYTHROCYTE COUNT [6]: 6.23 x10E6/uL
- HEMATOCRIT [6]: 39.53%
- HEMOGLOBIN [6]: 15 G/DL
- LEUKOCYTE COUNT [6]: 11.43 x10E3/uL
- LYMPHOCYTE [6]: 93.67%
- MEAN CORPUSCULAR HEMOGLOBIN [6]: 24.17 pg
- MEAN CORPUSCULAR HEMOGLOBIN CONCENTRATION [6]: 38 G/DL
- MEAN CORPUSCULAR VOLUME [6]: 63.5 fL
- MONOCYTE [6]: 0%
- NEUTROPHIL [6]: 6%
- NUCLEATED RED BLOOD CELLS [6]: 0 /100WBC
- PLATELET COUNT [6]: 1334 x10E3/uL
- ALANINE AMINOTRANSFERASE [6]: 47.33 u/L
- ALBUMIN [6]: 3.9 G/DL
- ALKALINE PHOSPHATASE [6]: 436.33 u/L
- ASPARTATE AMINOTRANSFERASE [6]: 73.67 u/L
- BLOOD UREA NITROGEN [6]: 13.67 mg/dL
- CARBON DIOXIDE [6]: 24.33 mmol/L
- CHLORIDE [6]: 103.67 MEQ/L
- CHOLESTEROL [6]: 34 mg/dL
- CREATINE PHOSPHOKINASE [6]: 348.33 u/L
- CREATININE [6]: 0.2 mg/dL
- GLUCOSE [6]: 160.67 mg/dL
- LACTATE DEHYDROGENASE [6]: 186.67 u/L
- LIPASE [6]: 8.67 u/L
- PHOSPHORUS [6]: 11.73 mg/dL
- POTASSIUM [6]: 5.75 MEQ/L
